Experiment [1] deals with Wnt/β-catenin signaling (β-catenin activity) in SW480 cell line. Put plainly: Cell-based Wnt agonist screening, TCF luciferase reporter, SW480 (TCF-FL). On the set-up: species or system human. Conditions: Homo sapiens, % of LiCl (20 mM), 24 h, read-out: Max. Activity (%); for Emax at 120 µM: Con. 120 μM; for Emax at 30 µM: Con. 30 μM; for Emax at 1 µM: Con. 1 μM; for Emax at 10 µM: Con. 10 μM. In a few lines:
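HEK293 and SW480 lines stably carried a 5X TCF firefly luciferase reporter under G418 selection. Cells (8,000–15,000/well, RPMI 1640 with 5% FBS) were grown 24 h, then treated with compound for 24 h. Luciferase activity was expressed as percent of the 20 mM LiCl positive control.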

The subject of experiment [2] is ST-2, a murine bone marrow stromal T cell. Put plainly: Differentiation of ST2 cell line into osteoblasts, alkaline phosphatase activity. It counts as cell-based. Conditions: Mus musculus, 96 h; ST-2 cells, 11 μM compound, 4 days; control treated only with ascorbic acid and β-glycerolphosphate = 100; read-out: ALP Activity (% Control). Here is the method:
The derivatives synthesized according to the present invention were assayed for their ability to differentiate stem cells into osteoblasts. In this regard, ST-2, a murine bone marrow stromal T cell, was used to measure the activity of bone-specific alkaline phosphatase, a marker of early-stage osteoblast differentiation. In detail, the cell line was cultured in an MEM supplemented with penicillin-streptomycin (100 Units/mL) and heat-inactivated 5% fetal bovine serum under standard culture conditions (5% CO2, 37° C., 100% relative humidity). […] The suspension was diluted with the same medium to adjust the cell count to 5,000˜10,000 cells per well, and was moved in a 96-well microtiter, subsequently. After being incubated for 24 hrs, the cells were treated in a medium containing 50 μg/ml of ascorbic acid and 5 mM of β-glycerolphosphate with various concentrations of the isoxazole derivatives synthesized in Preparation Examples. During incubation for one to nine days, the Alkaline phosphatase activity was analyzed using a […] Assay kit (Promega, U.S.A.) according to the protocol described in the manual provided by the manufacturer. The activities were measured in cells which had been incubated at 11 μM of each of the compounds for 4 days. Data on the activities of the isoxazole derivatives synthesized are given in Tables 44 to 47 and are expressed as percentages of ALP relative to that measured in the control, which was treated only with ascorbic acid and β-glycerolphosphate. ALP activities according to the concentrations of Derivative (1) are depicted in FIG. 5.

`O=C(NCCS(=O)(=O)Nc1ccccc1)c1cc(-c2cccs2)on1` [Derivative (220), 5-thiophen-2-yl-isoxazole-3-carboxylic acid (2-phenylsulfamoyl-ethyl)-amide]: in experiment [1], the Emax at 120 µM was 182%. Moreover, in experiment [2], the activity at 11 µM came out at 187%.
Consider `O=C(NCCn1ccnc1)c1cc(-c2ccsc2)on1` [Derivative (157), 5-thiophen-3-yl-isoxazole-3-carboxylic acid (2-imidazol-1-yl-ethyl)-amide], for which the Emax at 30 µM in experiment [1] amounted to 871%. Besides, the activity at 11 µM in experiment [2] was 809%.
With `O=C(NCCN(c1ccccc1)c1ccccc1)c1cc(-c2ccco2)on1` [Derivative (196), 5-furan-2-yl-isoxazole-3-carboxylic acid (2-diphenylamino-ethyl)-amide], the Emax at 30 µM in experiment [1] was 35%. Besides, the activity at 11 µM in experiment [2] came out at 77%.
Consider `O=C(NCCNCc1ccccc1)c1cc(-c2ccco2)on1` [Derivative (197), 5-furan-2-yl-isoxazole-3-carboxylic acid (2-benzylamino-ethyl)-amide], for which the Emax at 120 µM in experiment [1] turned out to be 84%. For the same molecule, in experiment [2], the activity at 11 µM stood at 118%.
For `COc1cccc(N2CCN(CCNC(=O)c3cc(-c4ccco4)on3)CC2)c1` [Derivative (185), 5-furan-2-yl-isoxazole-3-carboxylic acid {2-[4-(3-methoxyphenyl)-piperazin-1-yl]-ethyl}-amide], the Emax at 30 µM in experiment [1] amounted to 810%. Moreover, the activity at 11 µM in experiment [2] worked out at 714%.
For `CN(CCNC(=O)c1cc(-c2ccco2)on1)c1ccccc1` [Derivative (202), 5-furan-2-yl-isoxazole-3-carboxylic acid [2-(methyl-phenyl-amino)-ethyl]-amide], in that order: 185% and 109%.
For `O=C(NCCN1CCN(c2ccccn2)CC1)c1cc(-c2ccco2)on1` [Derivative (182), 5-furan-2-yl-isoxazole-3-carboxylic acid [2-(4-pyridin-2-yl-piperazin-1-yl)-ethyl]-amide], in that order: 413% and 887%.
Turning to `O=C(NCCN1CCN(c2ccc([N+](=O)[O-])cc2)CC1)c1cc(-c2ccco2)on1` [Derivative (180), 5-furan-2-yl-isoxazole-3-carboxylic acid {2-[4-(4-nitrophenyl)-piperazin-1-yl]-ethyl}-amide], the Emax at 120 µM in experiment [1] is 45%. In addition, the activity at 11 µM in experiment [2] came out at 181%.
`Cn1cccc1-c1cc(C(=O)NCCCn2ccnc2)no1` [Derivative (149), 5-(1-methyl-1H-pyrrol-2-yl)-isoxazole-3-carboxylic acid (3-imidazol-1-yl-propyl)-amide]: in experiment [1], the Emax at 30 µM turned out to be 70%. Moreover, the activity at 11 µM in experiment [2] was 275%.
As for `CC(C)(C)c1cc(C(=O)NCCCn2ccnc2)no1` [Derivative (167), 5-tert-butyl-3-isoxazole-3-carboxylic acid (3-imidazol-1-yl-propyl)-amide], in experiment [1], the Emax at 120 µM was found to be 37%. The activity at 11 µM in experiment [2] was determined as 276%.
`COc1cccnc1N1CCN(CCNC(=O)c2cc(-c3ccco3)on2)CC1` [Derivative (189), 5-furan-2-yl-isoxazole-3-carboxylic acid {2-[4-(3-methoxy-pyridin-2-yl)-piperazin-1-yl]-ethyl}-amide]: in experiment [1], the Emax at 30 µM came out at 238%. The activity at 11 µM in experiment [2] was found to be 220%.
`O=C(NCCCn1cncn1)c1cc(C2CCCCC2)on1` [Derivative (165), 5-cyclohexyl-3-isoxazole-3-carboxylic acid (3-[1,2,4]-triazol-1-yl-propyl)-amide]: the Emax at 30 µM in experiment [1] turned out to be 45%. The activity at 11 µM in experiment [2] was determined as 92%.
For `O=C(NCCNc1ccc(Cl)cc1)c1cc(-c2ccco2)on1` [Derivative (198), 5-furan-2-yl-isoxazole-3-carboxylic acid [2-(4-chloro-phenylamino)-ethyl]-amide], in that order: 50% and 100%.
For `Cn1cccc1-c1cc(C(=O)NCCn2cncn2)no1` [Derivative (151), 5-(1-methyl-1H-pyrrol-2-yl)-isoxazole-3-carboxylic acid (2-[1,2,4]triazol-1-yl-ethyl)-amide], in that order: 41% and 151%.
As to `O=C(NCCCn1ccnc1)c1cc(-c2cc3ccccc3o2)on1` [Derivative (169), 5-benzofuran-2-yl-isoxazole-3-carboxylic acid (3-imidazol-1-yl-propyl)-amide], the Emax at 1 µM in experiment [1] was 43%. Also, in experiment [2], the activity at 11 µM stood at 83%.
For `O=C(NCCN1CCN(c2ccc(F)cc2)CC1)c1cc(-c2ccco2)on1` [Derivative (179), 5-furan-2-yl-isoxazole-3-carboxylic acid {2-[4-(4-fluorophenyl)-piperazin-1-yl]-ethyl}-amide], the Emax at 10 µM in experiment [1] is 73%. The activity at 11 µM in experiment [2] was 356%.
For `O=C(NCCCn1cncn1)c1cc(N2CCOCC2)on1` [Derivative (162), 5-morpholin-4-yl-isoxazole-3-carboxylic acid (3-[1,2,4]-triazol-1-yl-propyl)-amide], in that order: 30% and 60%.
In the case of `O=C(NCCCn1cnnn1)c1cc(-c2ccco2)on1` [Derivative (52), 5-furan-2-yl-isoxazole-3-carboxylic acid (3-tetrazol-1-yl-propyl)-amide], the activity at 11 µM in experiment [2] worked out at 438%.
In the case of `O=C(NCCNC(=O)c1cc(-c2cccs2)on1)Nc1ccccc1` [Derivative (211), 5-thiophen-2-yl-isoxazole-3-carboxylic acid [2-(3-phenyl-urido)-ethyl]-amide], in experiment [1], the Emax at 30 µM worked out at 158%. In experiment [2], the activity at 11 µM was found to be 204%.
For the molecule `O=C(NCCSc1ccccc1)c1cc(-c2cccs2)on1` [Derivative (218), 5-thiophen-2-yl-isoxazole-3-carboxylic acid (2-phenylsulfanyl-ethyl)-amide], in experiment [1], the Emax at 30 µM is 55%. For the same molecule, the activity at 11 µM in experiment [2] came out at 128%.
As for `O=C(NCCCNc1ccccc1)c1cc(-c2ccco2)on1` [Derivative (201), 5-furan-2-yl-isoxazole-3-carboxylic acid (3-phenylamino-propyl)-amide], in experiment [1], the Emax at 1 µM turned out to be 545%. Further, the activity at 11 µM in experiment [2] was 859%.
In the case of `O=C(NCCN1CCN(c2ncccc2C(F)(F)F)CC1)c1cc(-c2ccco2)on1` [Derivative (191), 5-furan-2-yl-isoxazole-3-carboxylic acid {2-[4-(3-trifluoromethyl-pyridin-2-yl)-piperazin-1-yl]-ethyl}-amide], the Emax at 30 µM in experiment [1] worked out at 91%. Further, in experiment [2], the activity at 11 µM worked out at 309%.
Regarding `Cc1nccn1CCCNC(=O)c1cc(-c2ccco2)on1` [Derivative (44), 5-furan-2-yl-isoxazole-3-carboxylic acid [3-(2-methyl-imidazol-1-yl)-propyl]-amide], the Emax at 120 µM in experiment [1] was found to be 657%. Also, the activity at 11 µM in experiment [2] amounted to 997%.
For `O=C(NCCn1cnnn1)c1cc(-c2ccco2)on1` [Derivative (43), 5-furan-2-yl-isoxazole-3-carboxylic acid (2-tetrazol-1-yl-ethyl)-amide], in that order: 357% and 455%.
For `O=C(NCCc1ccc(O)cc1)c1cc(-c2cccs2)on1` [Derivative (141), 5-thiophen-2-yl-isoxazole-3-carboxylic acid [2-(4-hydroxy-phenyl)-ethyl]-amide], in that order: 519% and 790%.

(Values after US7915297B2, “Isoxazole derivatives and use thereof” (SK Holdings Co., Ltd., priority 2005, dated 2011).)
